The text below walks through data of US11014964B2, “Peptide amide compound and preparation method and medical use thereof” (Sichuan Haisco Pharmaceutical Co., Ltd., priority 2017, dated 2021).

By EC50 is commonly meant the concentration at which the effect is half-maximal. High values mean lower potency in that assay, low ones higher potency in that assay. As a reminder, the AUC(0-t) is the area under the concentration-time curve up to a stated or last time point. The term half-life denotes how long it takes for the measured level to halve.

The target of data set [1] is T1, human κ-opioid receptor (Homo sapiens, UniProt P41145).
T1 construct: host or cells: OPRK1 cells (DiscoveRx)
Kind of data set: Agonist activity on human κ-opioid receptors (inhibition of forskolin-stimulated cAMP release, TR-FRET). The class given is cell-based. To be noted: OPRK1 cells (DiscoveRx). The source says:
Test 1: Agonist Activity on Human κ-Opioid Receptors
Forskolin can stimulate the release of cAMP from a human κ-opioid receptor-overexpressing cell line, OPRK1 cells (DiscoveRx), and κ-opioid receptor agonists can inhibit the cAMP release stimulated by forskolin. By detecting the inhibitory effect of the test compound on the cAMP release stimulated by forskolin, the agonistic activity of the compound on the human κ-opioid receptor can be determined. First, a certain concentration of forskolin and different concentrations of the test compound were incubated with human κ-opioid receptor overexpressing cell lines. A cAMP immunoassay (LANCE®, PerkinElmer) based on time-resolved fluorescence resonance energy transfer (TR-FRET) was used to determine cAMP levels in the stimulated OPRK1 cells. The specific method is as follows:
OPRK1 cells (DiscoveRx) that highly express human κ-opioid receptors were cultured in McCoy's 5A (Gibco 16600-082) medium containing 10% FBS (Gibco 10099-141). On the day of the experiment, the cells in the exponential growth phase were washed and separated with PBS/5 mM EDTA, collected by centrifugation, resuspended with Stimulation Buffer and counted. The concentration of cells was adjusted to 3*10^5 cells/ml. DMSO was used to dissolve Forskolin and the test compound respectively, so that the mother liquor concentration each was 10 mM, and then diluted Forskolin to […] with Stimulation Buffer, and different concentrations of the test compound (the concentrations were 80, 16, 3.2, 0.64, 0.128, 0.0256, 0.00512, 0.001024, 0 μM) was added, 5 μl per well was added to a 384-well plate. 5 μl of cell suspension was added to each well and incubated at room temperature for 30 min. Subsequently, 5 μl of 4×Eu-cAMP tracer working solution (50-fold dilution of Eu-cAMP stock solution with cAMP Detection Buffer) and 5 μl of 4×Ulight-anti-cAMP working solution (150-fold dilution of ULight-anti-cAMP stock solution with cAMP Detection Buffer) were added to each well, and incubated at room temperature for 1 hour. 384-well plates were assayed for cAMP levels using a microplate reader (Perkin Elmer, Envision) TR-FRET method. The obtained data were processed and fitted to EC50 using the origin 7.5 software. The human κ-opioid receptor agonistic activity of the compound of the present invention was measured through the above experiments, and the measured EC50 values are shown in Table 1.
Stimulation Buffer preparation method: 14 mL 1*HBSS (invitrogen, cat. #14025-092), 75 μL 1 M HEPES (Invitrogen, cat. #15630-080), 30 μL 250 mM IBMX was dissolved in DMSO (Sigma, cat. #17018) and mixed with 200 μL 7.5% BSA Stabilizer. pH of the solution was adjusted to 7.4 with 0.1 N NaOH and make up to 15 mL with 1*HBSS.
A general note: In TR-FRET formats the signal depends on donor and acceptor labels being close together.

A short description of data set [2]: Mouse PK test. It is filed as in vivo. To be noted: plasma, male ICR mice, iv, 1 mg/kg (calculated in free form).
A short description of data set [3]: Rat PK test. It is filed as in vivo. To be noted: male SD rats, iv, 1 mg/kg (calculated in free form).

T1 sequence (P41145 whole entry): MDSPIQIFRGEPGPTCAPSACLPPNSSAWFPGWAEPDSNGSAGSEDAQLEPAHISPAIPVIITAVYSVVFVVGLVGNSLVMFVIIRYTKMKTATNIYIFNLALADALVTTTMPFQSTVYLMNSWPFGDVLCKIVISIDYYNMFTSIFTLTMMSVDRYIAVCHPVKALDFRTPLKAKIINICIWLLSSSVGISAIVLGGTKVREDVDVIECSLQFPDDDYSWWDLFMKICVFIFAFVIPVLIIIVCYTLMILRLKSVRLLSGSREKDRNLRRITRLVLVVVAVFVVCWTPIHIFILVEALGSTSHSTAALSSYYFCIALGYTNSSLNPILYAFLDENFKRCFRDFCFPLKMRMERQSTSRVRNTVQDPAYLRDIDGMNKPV

The compound `CC(C)C[C@@H](NC(=O)[C@@H](Cc1ccccc1)NC(=O)[C@H](N)Cc1ccccc1)C(=O)N[C@H](CCCCN)C(=O)N1CCC2(CC1)CN(C(=O)[C@@H](C)N)C2` [Compound 17, (2R)—N-[(1R)-5-amino-1-[2-[(2R)-2-aminopropanoyl]-2,7-diazaspiro[3.5]nonane-7-carbonyl]pentyl]-2-[[(2R)-2-[[(2R)-2-amino-3-phenyl-propanoyl]amino]-3-phenyl-propanoyl]amino]-4-methyl-pentanamide; tri-trifluoroacetic acid] displayed a half-maximal effective concentration (EC50) in data set [1] of 0.00919 nM. In addition, in data set [2], the AUC(0-t) is 2240 ng·h/mL and the half-life was 3.88 h. `CC(=O)N1CCC2(CC1)CN(C(=O)[C@@H](CCCCN)NC(=O)[C@@H](CC(C)C)NC(=O)[C@@H](Cc1ccccc1)NC(=O)[C@H](N)Cc1ccccc1)C2` [Compound 20, (2R)—N-[(1R)-1-(7-acetyl-2,7-diazaspiro[3.5]nonane-2-carbonyl)-5-amino-pentyl]-2-[[(2R)-2-[[(2R)-2-amino-3-phenyl-propanoyl]amino]-3-phenyl-propanoyl]amino]-4-methyl-pentanamide; di-trifluoroacetic acid] came in with an EC50 in data set [1] of 0.086 nM. With `CC(C)C[C@@H](NC(=O)[C@@H](Cc1ccccc1)NC(=O)[C@H](N)Cc1ccccc1)C(=O)N[C@H](CCCCN)C(=O)N1CCC(N)(C(=O)O)CC1` [CR-845], the Cl in data set [3] is listed as 8.29 ml/kgmin. Moreover, in data set [3] (rat, plasma), the AUC(0-t) was 1960 ng·h/mL and the half-life is 3.9 h. In data set [3] (rat, plasma, read-out: Vdss), the Vd is 1.56 L/kg. In data set [2], the AUC(0-t) is 1120 ng·h/mL and the half-life was 0.388 h. Consider `CC(=O)N1CCC2(CCN(C(=O)[C@@H](CCCCN)NC(=O)[C@@H](CC(C)C)NC(=O)[C@@H](Cc3ccccc3)NC(=O)[C@H](N)Cc3ccccc3)C2)C1` (stereo partly drawn) [Compound 31, (2R)—N-[(1R)-1-(7-acetyl-2,7-diazaspiro[4.4]nonane-2-carbonyl)-5-amino-pentyl]-2-[[(2R)-2-[[(2R)-2-amino-3-phenyl-propanoyl]amino]-3-phenyl-propanoyl]amino]-4-methyl-pentanamide; di-trifluoroacetic acid], for which the concentration giving a half-maximal response (EC50) in data set [1] is 0.0136 nM.

`CC(=O)N1CCC2(C1)CN(C(=O)[C@@H](CCCCN)NC(=O)[C@@H](CC(C)C)NC(=O)[C@@H](Cc1ccccc1)NC(=O)[C@H](N)Cc1ccccc1)C2` [Compound 30, (2R)—N-[(1R)-1-(7-acetyl-2,7-diazaspiro[3.4]octane-2-carbonyl)-5-amino-pentyl]-2-[[(2R)-2-[[(2R)-2-amino-3-phenyl-propanoyl]amino]-3-phenyl-propanoyl]amino]-4-methyl-pentanamide; di-trifluoroacetic acid] showed an EC50 in data set [1] of 0.071 nM. Same read-out and setting: next, `CC(C)C[C@@H](NC(=O)[C@@H](Cc1ccccc1)NC(=O)[C@H](N)Cc1ccccc1)C(=O)N[C@H](CCCCN)C(=O)N1CCC2(CC1)CN(C(=O)N1CC(S(C)(=O)=O)C1)C2` [Compound 14, (2R)—N-[(1R)-5-amino-1-[2-(3-methylsulfonylazetidine-1-carbonyl)-2,7-diazaspiro[3.5]nonane-7-carbonyl]pentyl]-2-[[(2R)-2-[[(2R)-2-amino-3-phenyl-propanoyl]amino]-3-phenyl-propanoyl]amino]-4-methyl-pentanamide; di-trifluoroacetic acid]: 0.0155 nM. Turning to `CC(C)C[C@@H](NC(=O)[C@@H](Cc1ccccc1)NC(=O)[C@H](N)Cc1ccccc1)C(=O)N[C@H](CCCCN)C(=O)N1CCC2(CC1)CN(C(=O)N1CCCC1)C2` [Compound 13, (2R)-2-[[(2R)-2-[[(2R)-2-amino-3-phenyl-propanoyl]amino]-3-phenyl-propanoyl]amino]-N-[(1R)-5-amino-1-[2-(pyrrolidin-1-carbonyl)-2,7-diazaspiro[3.5]nonane-7-carbonyl]pentyl]-4-methyl-pentanamide; di-trifluoroacetic acid], in data set [1], the response was half-maximal at 0.00682 nM (EC50). Same read-out and setting: next, `CC(C)C[C@@H](NC(=O)[C@@H](Cc1ccccc1)NC(=O)[C@H](N)Cc1ccccc1)C(=O)N[C@H](CCCCN)C(=O)N1CCC2(CC1)CC(N1CCCCC1)C2` [Compound 23, (2R)-2-[[(2R)-2-[[(2R)-2-amino-3-phenyl-propanoyl]amino]-3-phenyl-propanoyl]amino]-N-[(1R)-5-amino-1-[2-(1-piperidinyl)-7-azaspiro[3.5]nonane-7-carbonyl]pentyl]-4-methyl-pentanamide; tri-trifluoroacetic acid]: 0.023 nM; `CC(C)C[C@@H](NC(=O)[C@@H](Cc1ccccc1)NC(=O)[C@H](N)Cc1ccccc1)C(=O)N[C@H](CCCCN)C(=O)N1CC2(CCN(C3COC3)CC2)C1` [Compound 33, (2R)—N-[(1R)-5-amino-1-[7-(oxetan-3-yl)-2,7-diazaspiro[3.5]nonane-2-carbonyl]pentyl]-2-[[(2R)-2-[[(2R)-2-amino-3-phenyl-propanoyl]amino]-3-phenyl-propanoyl]amino]-4-methyl-pentanamide; tri-trifluoroacetic acid]: 0.05 nM; `CC(C)C[C@@H](NC(=O)[C@@H](Cc1ccccc1)NC(=O)[C@H](N)Cc1ccccc1)C(=O)N[C@H](CCCCN)C(=O)N1CC2(CCN(C(=O)[C@@H](C)N)CC2)C1` [Compound 18, (2R)—N-[(1R)-5-amino-1-[7-[(2R)-2-aminopropanoyl]-2,7-diazaspiro[3.5]nonane-2-carbonyl]pentyl]-2-[[(2R)-2-[[(2R)-2-amino-3-phenyl-propanoyl]amino]-3-phenyl-propanoyl]amino]-4-methyl-pentanamide; tri-trifluoroacetic acid]: 0.04 nM.

Consider `CNC(=O)N1CCC2(CCN(C(=O)[C@@H](CCCCN)NC(=O)[C@@H](CC(C)C)NC(=O)[C@@H](Cc3ccccc3)NC(=O)[C@H](N)Cc3ccccc3)C2)C1` (stereo partly drawn) [Compound 22, 7-[(2R)-6-amino-2-[[(2R)-2-[[(2R)-2-[[(2R)-2-amino-3-phenyl-propanoyl]amino]-3-phenyl-propanoyl]amino]-4-methyl-pentanoyl]amino]hexanoyl]-N-methyl-2,7-diazaspiro[4.4]nonane-2-carboxamide; di-trifluoroacetic acid], for which the EC50 in data set [1] was determined as 0.0112 nM. In the case of `CC(C)C[C@@H](NC(=O)[C@@H](Cc1ccccc1)NC(=O)[C@H](N)Cc1ccccc1)C(=O)N[C@H](CCCCN)C(=O)N1CC2(CCN(S(C)(=O)=O)CC2)C1` [Compound 12, (2R)—N-[(1R)-5-amino-1-(7-methylsulfonyl-2,7-diazaspiro[3.5]nonane-2-carbonyl)pentyl]-2-[[(2R)-2-[[(2R)-2-amino-3-phenyl-propanoyl]amino]-3-phenyl-propanoyl]amino]-4-methyl-pentanamide; di-trifluoroacetic acid], in data set [1], it took 0.067 nM to reach a half-maximal effect (EC50). Still for that read-out and setting: under `CC(C)C[C@@H](NC(=O)[C@@H](Cc1ccccc1)NC(=O)[C@H](N)Cc1ccccc1)C(=O)N[C@H](CCCCN)C(=O)N1CC2(CCN(C(=O)[C@@H](C)N)CC2(F)F)C1` [Compound 19, (2R)—N-[(1R)-5-amino-1-[7-[(2R)-2-aminopropanoyl]-5,5-difluoro-2,7-diazaspiro[3.5]nonane-2-carbonyl]pentyl]-2-[[(2R)-2-[[(2R)-2-amino-3-phenyl-propanoyl]amino]-3-phenyl-propanoyl]amino]-4-methyl-pentanamide; tri-trifluoroacetic acid] stands 0.044 nM.
